The values that follow come from patent US20100227887A1 (priority 2009, published 2010).

One data set concerns the target T1, human mGlu 5a receptor (Homo sapiens, UniProt P41594).
T1 construct: expressed in transfected cells; host or cells: EBNA cells (transient transfection); cell membrane homogenates
The data set can be described thus: [3H]MPEP competition binding on membranes of EBNA cells transfected with human mGlu 5a receptor. The following applies: [3H]MPEP (2 nM) competition, 1 h at 4° C., EBNA cell membranes. On the procedure:
The pharmacological activity of the compounds was tested using the following method: For binding experiments, cDNA encoding human mGlu 5a receptor was transiently transfected into EBNA cells using a procedure described by Schlaeger and Christensen [Cytotechnology 15:1-13 (1998)]. Cell membrane homogenates were stored at −80° C. until the day of assay where upon they were thawed and resuspended and polytronised in 15 mM Tris-HCl, 120 mM NaCl, 100 mM KCl, 25 mM CaCl2, 25 mM MgCl2 binding buffer at pH 7.4 to a final assay concentration of 20 μg protein/well.
Saturation isotherms were determined by addition of twelve [^3H]MPEP concentrations (0.04-100 nM) to these membranes (in a total volume of 200 μl) for 1 h at 4° C. Competition experiments were performed with a fixed concentration of [^3H]MPEP (2 nM) and IC50 values of test compounds evaluated using 11 concentrations (0.3-10,000 nM). Incubations were performed for 1 h at 4° C.
At the end of the incubation, membranes were filtered onto unifilter (96-well white microplate with bonded GF/C filter preincubated 1 h in 0.1% PEI in wash buffer, Packard Bio-Science, Meriden, Conn.) with a Filtermate 96 harvester (Packard BioScience) and washed 3 times with cold 50 mM Tris-HCl, pH 7.4 buffer. Nonspecific binding was measured in the presence of 10 μM MPEP. The radioactivity on the filter was counted (3 min) on a Packard Top-count microplate scintillation counter with quenching correction after addition of 45 μl of microscint 40 (Canberra Packard S. A., Zürich, Switzerland) and shaking for 20 min.
For binding experiments the Ki values of the compounds tested are given. The Ki value is defined by the following formula: […]
in which the IC50 values are those concentrations of the compounds tested which cause 50% inhibition of the competing radioligand ([^3H]MPEP). L is the concentration of radioligand used in the binding experiment and the Kd value of the radioligand is empirically determined for each batch of membranes prepared.

T1 sequence (P41594 21-1180 isoform P41594-2 limits assumed): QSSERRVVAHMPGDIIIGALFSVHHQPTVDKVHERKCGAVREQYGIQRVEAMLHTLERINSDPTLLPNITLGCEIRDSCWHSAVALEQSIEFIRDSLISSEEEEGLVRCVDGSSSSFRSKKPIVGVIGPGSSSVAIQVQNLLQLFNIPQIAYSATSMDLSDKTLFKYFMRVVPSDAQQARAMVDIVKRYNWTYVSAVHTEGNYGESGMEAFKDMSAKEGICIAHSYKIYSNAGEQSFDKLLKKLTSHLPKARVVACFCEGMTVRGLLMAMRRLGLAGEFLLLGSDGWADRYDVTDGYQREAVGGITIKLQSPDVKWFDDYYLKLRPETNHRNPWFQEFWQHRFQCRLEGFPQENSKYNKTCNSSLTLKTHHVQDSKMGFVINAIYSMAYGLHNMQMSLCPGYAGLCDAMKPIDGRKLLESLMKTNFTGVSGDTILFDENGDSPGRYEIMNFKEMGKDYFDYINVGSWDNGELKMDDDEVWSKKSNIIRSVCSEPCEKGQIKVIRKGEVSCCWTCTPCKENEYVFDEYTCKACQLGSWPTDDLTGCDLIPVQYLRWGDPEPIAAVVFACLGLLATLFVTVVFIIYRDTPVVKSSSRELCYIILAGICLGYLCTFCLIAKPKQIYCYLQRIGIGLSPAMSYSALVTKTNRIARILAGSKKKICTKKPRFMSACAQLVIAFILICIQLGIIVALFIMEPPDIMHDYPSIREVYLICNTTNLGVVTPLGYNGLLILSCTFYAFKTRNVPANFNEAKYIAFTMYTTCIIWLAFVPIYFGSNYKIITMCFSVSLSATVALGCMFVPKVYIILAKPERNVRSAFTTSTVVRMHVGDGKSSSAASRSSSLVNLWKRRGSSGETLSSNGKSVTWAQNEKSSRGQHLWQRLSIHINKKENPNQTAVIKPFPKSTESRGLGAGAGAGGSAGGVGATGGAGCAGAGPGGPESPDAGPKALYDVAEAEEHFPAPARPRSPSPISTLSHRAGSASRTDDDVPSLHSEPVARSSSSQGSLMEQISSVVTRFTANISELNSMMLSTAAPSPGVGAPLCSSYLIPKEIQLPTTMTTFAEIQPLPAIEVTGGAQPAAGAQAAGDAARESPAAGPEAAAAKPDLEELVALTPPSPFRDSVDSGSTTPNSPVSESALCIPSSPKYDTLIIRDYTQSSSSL

In the case of `Cc1cc(C#N)cc(C(=O)Nc2cccc(Cl)c2)n1` [Example 26, 4-Cyano-6-methyl-pyridine-2-carboxylic acid (3-chloro-phenyl)-amide], the melting point (as a rule, the temperature of the solid-liquid transition) is 147.5 °C. Further, the inhibitory constant (Ki) (commonly a measure of affinity in units of concentration, obtained from inhibition or displacement) on human mGlu 5a receptor worked out at 6 nM.

Molecule `Cc1cc(Br)cc(C(=O)Nc2ccc(F)cn2)n1` [Example 8, 4-Bromo-6-methyl-pyridine-2-carboxylic acid (5-fluoro-pyridin-2-yl)-amide] came in with a melting point of 160 °C. Further, the inhibitory constant (Ki) at human mGlu 5a receptor was 37 nM.

For `Cc1csc(NC(=O)c2nc(C)cc(C#N)c2C)n1` [Example 30, 4-Cyano-3,6-dimethyl-pyridine-2-carboxylic acid (4-methyl-thiazol-2-yl)-amide], the melting point turned out to be 199.5 °C. Moreover, on human mGlu 5a receptor, the Ki is 37 nM.

Regarding `Cc1cc(C#N)cc(C(=O)Nc2ccnc(F)c2)n1` [Example 48, 4-Cyano-6-methyl-pyridine-2-carboxylic acid (2-fluoro-pyridin-4-yl)-amide], the melting point came to 246.5 °C. The Ki on human mGlu 5a receptor was 33 nM.

`N#Cc1cc(CO)nc(C(=O)Nc2cccc(Cl)c2)c1` [Example 40, 4-Cyano-6-hydroxymethyl-pyridine-2-carboxylic acid (3-chloro-phenyl)-amide] gave a melting point of 167 °C. The Ki on human mGlu 5a receptor was found to be 44 nM.

Regarding `Cc1ccc(NC(=O)c2cc(C#N)cc(C)n2)nc1` [Example 5, 4-Cyano-6-methyl-pyridine-2-carboxylic acid (5-methyl-pyridin-2-yl)-amide], the melting point came out at 196 °C. Further, the Ki on human mGlu 5a receptor was 11 nM.

Molecule `N#Cc1cc(CO)nc(C(=O)Nc2ccc(F)cn2)c1` [Example 46, 4-Cyano-6-hydroxymethyl-pyridine-2-carboxylic acid (5-fluoro-pyridin-2-yl)-amide] registered a melting point of 232.5 °C. For the same molecule, the inhibition constant (Ki) on human mGlu 5a receptor amounted to 111 nM.

In the case of `Cc1cccc(NC(=O)c2cc(C#N)cc(C)n2)c1` [Example 43, 4-Cyano-6-methyl-pyridine-2-carboxylic acid m-tolylamide], the melting point is 160 °C. At human mGlu 5a receptor, the inhibition constant (Ki) worked out at 9 nM.

As to `Cc1cc(C#N)cc(C(=O)Nc2ccc(F)c(F)c2)n1` [Example 42, 4-Cyano-6-methyl-pyridine-2-carboxylic acid (3,4-difluoro-phenyl)-amide], the melting point was determined as 170 °C. For the same molecule, the Ki on human mGlu 5a receptor came out at 117 nM.

Turning to `Cc1cc(Br)cc(C(=O)Nc2ccc(F)c(C)n2)n1` [Example 10, 4-Bromo-6-methyl-pyridine-2-carboxylic acid (5-fluoro-6-methyl-pyridin-2-yl)-amide], the melting point is 181.5 °C. Further, at human mGlu 5a receptor, the inhibitory constant (Ki) was 61 nM.

On to `Cc1cc(C#N)cc(C(=O)Nc2cccc(Cl)n2)n1` [Example 23, 4-Cyano-6-methyl-pyridine-2-carboxylic acid (6-chloro-pyridin-2-yl)-amide], for which the melting point came to 222.5 °C. Also, the inhibitory constant (Ki) at human mGlu 5a receptor amounted to 8 nM.

`Cc1cc(Cl)cc(C(=O)Nc2cccc(Cl)n2)n1` [Example 35, 4-Chloro-6-methyl-pyridine-2-carboxylic acid (6-chloro-pyridin-2-yl)-amide]: the melting point stood at 176 °C. The Ki at human mGlu 5a receptor was 34 nM.

Molecule `Cc1cc(C#N)cc(C(=O)Nc2ccn(C)n2)n1` [Example 1, 4-Cyano-6-methyl-pyridine-2-carboxylic acid (1-methyl-1H-pyrazol-3-yl)-amide] came in with a melting point of 201 °C. Besides, the Ki at human mGlu 5a receptor turned out to be 38 nM.

`Cc1cc(Cl)cc(C(=O)Nc2nc(C)cs2)n1` [Example 20, 4-Chloro-6-methyl-pyridine-2-carboxylic acid (4-methyl-thiazol-2-yl)-amide] showed a melting point of 176 °C. In addition, the Ki at human mGlu 5a receptor stood at 14 nM.

The molecule `Cc1cc(C#N)cc(C(=O)Nc2ccc(F)cn2)n1` [Example 4, 4-Cyano-6-methyl-pyridine-2-carboxylic acid (5-fluoro-pyridin-2-yl)-amide] yielded a melting point of 204.5 °C. At human mGlu 5a receptor, the Ki stood at 6 nM.

`Cc1cc(C#N)c(C)c(C(=O)Nc2ccn(C)n2)n1` [Example 12, 4-Cyano-3,6-dimethyl-pyridine-2-carboxylic acid (1-methyl-1H-pyrazol-3-yl)-amide] displayed a melting point of 180.5 °C. On human mGlu 5a receptor, the inhibition constant Ki stood at 143 nM.

Regarding `CCc1cc(C#N)cc(C(=O)Nc2ccc(F)cn2)n1` [Example 25, 4-Cyano-6-ethyl-pyridine-2-carboxylic acid (5-fluoro-pyridin-2-yl)-amide], the melting point was determined as 183.5 °C. Besides, the inhibition constant Ki on human mGlu 5a receptor is 11 nM.

In turn, `Cc1cc(C#N)cc(C(=O)Nc2cccc(C(F)(F)F)c2)n1` [Example 44, 4-Cyano-6-methyl-pyridine-2-carboxylic acid (3-trifluoromethyl-phenyl)-amide] gave a melting point of 167 °C. For the same molecule, at human mGlu 5a receptor, the inhibition constant (Ki) worked out at 42 nM.

Molecule `Cc1cc(C#N)cc(C(=O)Nc2ccc(F)c(Cl)c2)n1` [Example 38, 4-Cyano-6-methyl-pyridine-2-carboxylic acid (3-chloro-4-fluoro-phenyl)-amide] returned a melting point of 204 °C. Moreover, the Ki on human mGlu 5a receptor came out at 27 nM.

Take `Cc1cc(C#N)cc(C(=O)Nc2ccc(C#N)cn2)n1` [Example 6, 4-Cyano-6-methyl-pyridine-2-carboxylic acid (5-cyano-pyridin-2-yl)-amide]: the melting point worked out at 279 °C. For the same molecule, the Ki on human mGlu 5a receptor stood at 109 nM.

For the molecule `C#Cc1cc(C)nc(C(=O)Nc2ccn(C)n2)c1` [Example 7, 4-Ethynyl-6-methyl-pyridine-2-carboxylic acid (1-methyl-1H-pyrazol-3-yl)-amide], the melting point worked out at 226.5 °C. In addition, at human mGlu 5a receptor, the Ki turned out to be 33 nM.

`Cc1cc(C#N)c(C)c(C(=O)Nc2ccc(Cl)cn2)n1` [Example 29, 4-Cyano-3,6-dimethyl-pyridine-2-carboxylic acid (5-chloro-pyridin-2-yl)-amide] showed a melting point of 264 °C. The inhibitory constant (Ki) at human mGlu 5a receptor was found to be 97 nM.

`Cc1cc(NC(=O)c2cc(C#N)cc(C)n2)ccn1` [Example 50, 4-Cyano-6-methyl-pyridine-2-carboxylic acid (2-methyl-pyridin-4-yl)-amide] displayed a melting point of 302 °C. The inhibition constant (Ki) on human mGlu 5a receptor worked out at 99 nM.
